Measured values published in patent publication US12421245B2, “Pharmaceutically acceptable acid salt of free base of GLP1 receptor agonist, and preparation method therefor” (Hangzhou Zhongmei Huadong Pharmaceutical Co., Ltd., priority 2020, dated 2025).
Where a name gives a salt, the structure may show the parent alone.

Columns and labels:
Type in all cases: physicochemical
[1] = Assessment of pH solubility of crystalline salts in buffers
Protocol: 1) Assessment of pH Solubility The solubility of crystal form B of hydrochloride, crystal form C of p-toluenesulfonate, crystal form C of sulfate, and crystal form C of hydrobromide under different pH conditions were determined and compared, and the results were shown in Table 8. All the crystalline salts had low solubility in buffers of pH 3.0 and 5.0.

[2] = Hygroscopicity, dynamic moisture adsorption (DVS) test; details: for Moisture adsorption rate: DVS, 25° C., 80% RH; for Change of crystal form, yes/no: before and after the DVS test
Protocol: 5. Dynamic moisture adsorption (DVS):
Dynamic moisture adsorption (DVS) curves were collected on DVS Intrinsic of Surface Measurement Systems (SMS). The relative humidity at 25° C. was corrected with the deliquescent points of LiCl, Mg (NO3) 2 and KCl.
Five crystalline salts were subject to DVS test (25° C., 80% RH).

[3] = Assessment of solid stability (XRPD and HPLC after storage); details: for Change of crystal form, yes/no: XRPD after 40° C./100% RH/7 d; for HPLC (area %) 40° C./100% RH/7 d: after 40° C./100% RH for 1 week; for HPLC (area %) Initiation: initial, before storage; for Stability relative to OAD2 dihydrochloride (in words): summary statement
Protocol: The stability of crystal form B of hydrochloride, crystal form C of sulfate, crystal form C of p-toluenesulfonate and compound I was compared. After placement under a 40° C./100% RH condition for 1 week, physical and chemical stability was assessed by means of XRPD and HPLC, respectively, and the results were shown in Table 10.

Compound | Solubility ([1]; pH 1.0) | Solubility ([1]; pH 2.0) | Solubility ([1]; pH 3.0) | Solubility ([1]; pH 5.0) | Solubility ([1]; pH 7.0) | Moisture adsorption rate [2] | Change of crystal form, yes/no [2] | Change of crystal form, yes/no [3] | HPLC (area %) 40° C./100% RH/7 d [3] | HPLC (area %) Initiation [3] | Stability relative to OAD2 dihydrochloride (in words) [3] | Solubility compared with other crystalline salts (in words) ([1]; buffer of pH 1.0) | Solid stability (in words) ([3]; 40° C./100% RH, 1 week) | Moisture adsorption rate ([2]; dihydrochloride)
CC[C@@H](c1ccccc1)N1Cc2cc3c(cc2C[C@H]1C(=O)N[C@@H](Cc1ccc(-c2ccnc(C)c2C)cc1)C(=O)O)OC[C@H](c1ccc(OCc2ccc(Cl)c(Cl)c2)cc1)O3 [Crystal form B of hydrochloride, (S)-2-(3S,8S)-3-(4-(3,4-dichlorobenzyloxy)phenyl-7-((S)-1-phenylpropyl)-2,3,6,7,8,9-hexahydro-[1,4]-dioxino[2,3-g]isoquinolin-8-ylformylamino)-3-(4-(2,3-dimethylpyridin-4-yl)phenyl)propionic acid] | 381 µg/mL | 17 µg/mL | 2 µg/mL | 1 µg/mL | 109 µg/mL | 0.8% | No | No | 98.18 area % | 98.37 area % | superior stability relative to OAD2 dihydrochloride | – | – | –
CC[C@@H](c1ccccc1)N1Cc2cc3c(cc2C[C@H]1C(=O)N[C@@H](Cc1ccc(-c2ccnc(C)c2C)cc1)C(=O)O)OC[C@H](c1ccc(OCc2ccc(Cl)c(Cl)c2)cc1)O3 [Crystal form C of p-toluenesulfonate, (S)-2-(3S,8S)-3-(4-(3,4-dichlorobenzyloxy)phenyl-7-((S)-1-phenylpropyl)-2,3,6,7,8,9-hexahydro-[1,4]-dioxino[2,3-g]isoquinolin-8-ylformylamino)-3-(4-(2,3-dimethylpyridin-4-yl)phenyl)propionic acid] | 1423 µg/mL | 118 µg/mL | 1 µg/mL | 1 µg/mL | 93 µg/mL | 0.6% | No | No | 98.87 area % | 98.85 area % | superior stability relative to OAD2 dihydrochloride | significantly higher solubility than other crystalline salts | the best stability | –
CC[C@@H](c1ccccc1)N1Cc2cc3c(cc2C[C@H]1C(=O)N[C@@H](Cc1ccc(-c2ccnc(C)c2C)cc1)C(=O)O)OC[C@H](c1ccc(OCc2ccc(Cl)c(Cl)c2)cc1)O3 [Crystal form C of sulfate, (S)-2-(3S,8S)-3-(4-(3,4-dichlorobenzyloxy)phenyl-7-((S)-1-phenylpropyl)-2,3,6,7,8,9-hexahydro-[1,4]-dioxino[2,3-g]isoquinolin-8-ylformylamino)-3-(4-(2,3-dimethylpyridin-4-yl)phenyl)propionic acid] | 811 µg/mL | 74 µg/mL | 1 µg/mL | 1 µg/mL | 96 µg/mL | 3.2% | No | No | 98.78 area % | 98.85 area % | superior stability relative to OAD2 dihydrochloride | – | – | –
CC[C@@H](c1ccccc1)N1Cc2cc3c(cc2C[C@H]1C(=O)N[C@@H](Cc1ccc(-c2ccnc(C)c2C)cc1)C(=O)O)OC[C@H](c1ccc(OCc2ccc(Cl)c(Cl)c2)cc1)O3 [OAD2 dihydrochloride, (S)-2-(3S,8S)-3-(4-(3,4-dichlorobenzyloxy)phenyl-7-((S)-1-phenylpropyl)-2,3,6,7,8,9-hexahydro-[1,4]-dioxino[2,3-g]isoquinolin-8-ylformylamino)-3-(4-(2,3-dimethylpyridin-4-yl)phenyl)propionic acid dihydrochloride, reference compound] | – | – | – | – | – | – | – | – | – | – | – | – | – | 8.3%
CC[C@@H](c1ccccc1)N1Cc2cc3c(cc2C[C@H]1C(=O)N[C@@H](Cc1ccc(-c2ccnc(C)c2C)cc1)C(=O)O)OC[C@H](c1ccc(OCc2ccc(Cl)c(Cl)c2)cc1)O3 [Crystal form C of hydrobromide, (S)-2-(3S,8S)-3-(4-(3,4-dichlorobenzyloxy)phenyl-7-((S)-1-phenylpropyl)-2,3,6,7,8,9-hexahydro-[1,4]-dioxino[2,3-g]isoquinolin-8-ylformylamino)-3-(4-(2,3-dimethylpyridin-4-yl)phenyl)propionic acid] | 496 µg/mL | 16 µg/mL | 1 µg/mL | 4 µg/mL | 39 µg/mL | 1.4% | No | – | – | – | – | – | – | –
